Data: patent publication US6596878B2, “Methods and compositions for inhibiting cell proliferative disorders” (Yissum Research & Development Company of the Hebrew …, priority 1994, dated 2003)
Where “and” joins values, the source holds several entries; their conditions need not be identical. Identical values can stand only once. Like-named read-outs stand apart in the source and are kept apart here. Values belong to the compound of their own block, whether it stands above or below them.

Columns and labels:
Type in all cases: cell-based
HER2 = target: T1, HER2 (Homo sapiens, UniProt P04626); experiment: HER2-BT474 whole cell kinase ELISA
T1 construct: the human mammary carcinoma line BT474 (ATCC HTB2) expressing HER2; endogenous in cells; host or cells: BT474 human mammary carcinoma cells
Procedure: HER2-BT474 assays measuring whole cell HER2 activity was carried out as described below:
All the following steps are at room temperature and aseptically, unless stated otherwise. All ELISA plate washing is by rinsing with distilled water three times and once with TBST.
Incubate the cells in 5% CO2 at 37° C. overnight.
2. ELISA Plate Coating and Blocking

PDGFR-β = target: T2, PDGFR-β (Homo sapiens, UniProt P09619); experiment: PDGFR-β cellular kinase assay (U1242 cells); settings: Table V, read-out: Estimated IC50 Cellular Kinase Assays PDGFR-β
T2 construct: the human glioblastoma line U1242 that expresses PDGFR-β; endogenous in cells; host or cells: U1242 human glioblastoma cells
Description: (§1) This example illustrates the ability of the exemplary compounds to inhibit receptor tyrosine kinases, such as HER2 and/or EGFR. The following target cells were used for cellular kinaseassays: NIH3T3 clone C7 (Honegger et al., supra) engineered to over-express human EGF receptor; NIH3T3 cells engineered to over-express a chimeric receptor containing the EGFR extracellular domain and the HER2 intracellular kinase domain; the human mammary carcinoma line BT474 (ATCC HTB2) expressing HER2; and the human glioblastoma line U1242 that expresses PDGFR-β. Growth assays were carried out using human mammary epithelial SKBR3 (ATCC HTB30) cells, SKOV3 (ATCC HTB77) human ovarian cancer cell line, A431 cells, MCF7 human breast carcinoma cells, MCF7 cells overexpress the HER2 kinase (MCF7-HER2), NIH3T3 cells, and NIH3T3 cells overexpressing the HER2 kinase (3T3-HER2).

SKBR3 cells = experiment: SKBR3 growth assay (sulphorhodamine B); settings: Homo sapiens, SK-BR-3, 96 h; Table V; 4 days, SRB; read-out: Estimated IC50 Growth Assays SKBR3 cells
Description: as §1
SKBR3 cells over-express HER2. A431 cells over-express EGFR. These cells were dispensed into 96-well plates with test compounds. After 4 days the monolayers were TCA-fixed then stained with sulphorhodamine B. The absorbance versus log drug concentration was plotted and IC50 values estimated.
(4) Tris, crystallized free base—Fisher Catalog #BP152 Working solution: 10 mM tris=1.211 gram Trizma base/liter H2O.
(5) Aspirate growth media from 96 well plate containing control cells or cell treated with compounds, rinse wells 2 or 3 times with PBS and layer 200 μl cold 10% TCA onto each well. Fix cells for 60 minutes at 4° C.
(6) Discard TCA and rinse wells 5 times with distilled H2O. Dry plate upside down on paper towel.
(7) Stain fixed cells for 10 minutes with 100 μl 0.4% SRB per well.
(8) Pour off SRB solution and rinse wells 5 times with 1% acetic acid.
(9) Dry plate upside down on paper towel.
(10) After wells are completely dry, solubilize dye with 100 μl 10 mM Tris base per well for 5-10 minutes on titer plate shaker.
(11) Read optical density at dual wavelength mode 570 nm and 630 nm on Dynatech ELISA plate reader, Model MR 5000.

SKOV3 cells = experiment: SKOV3 soft agar colony growth assay; settings: Homo sapiens, SK-OV-3, 336 h, Table V, colony growth 2 weeks, read-out: Estimated IC50 Growth Assays SKOV3 cells
Description: as §1
SKOV3 cells also over-express HER2. These cells were plated into soft agar with a test compound and colony growth was quantified 2 weeks. later using an Omnicon colony counter.
6. Soft Agar Assay Protocol
The soft agar assay is well known in the art as a method for measuring the effects of substances on cell growth. Unless otherwise stated the soft agar assays were carried out as follows:
(1) A Water bath set at 39° C. and another water bath at 37° C.
(2) 2×assay medium is comprised of 2×Dulbecco's Modified Eagle's Medium (DMEM) (Gibco Cat. #CA400-4ANO3) supplemented by the following:
20% Fetal Bovine Serum (FBS)
Non-essential Amino Acids (1:50 from 100×stock)
(3) 1×assay medium made of 1×DMEM supplemented with 10% FBS, 1 mM sodium pyruvate, 2 mM glutamine, 10 mM HEPES, non-essential amino acid (1:100 from 100×stock).
(4) 1.6% SeaPlaque Agarose in autoclave bottle
(5) Sterile 35 mm Corning plates (FMC Bioproducts Cat. #50102)
(6) Sterile 5 ml glass pipets (individually wrapped)
(7) Sterile 15 ml and 50 ml conical centrifuge tubes
(8) Pipets and sterile tips
(9) Sterile microcentrifuge tubes
(10) Cells in T75 flasks: SKOV-3 (ACTT HTB77).
(12) Procedure for making the base layer:
(a) Have all the media warmed up in the 37° C. water bath.
(b) To make 1×of assay medium+0.8% agar: make a 1:2 (vol:vol) dilution of melted agar (cooled to 39° C.), with 2×assay medium.
(c) Keep all media with agar warm in the 39° C. water bath when not in use.
(d) Dispense 1 ml of 1×assay medium+0.8% agar into dishes and gently swirl plate to form a uniform base layer. Bubbles should be avoided.
(e) Refrigerate base layers to solidify (about 20 minutes). Base layers can be stored overnight in the refrigerator.
(13) Procedure for collecting cells:
(a) Take out one flask per cell line from the incubator; aspirate off medium; wash once with PBS and aspirate off; add 3 ml of trypsin solution. […]
(d) Colonies that are 60 microns and larger are scored positive.

[1] = Table VI, cellular kinase assay, read-out: HER2-BT474
[2] = Table V, read-out: Estimated IC50 Cellular Kinase Assays HER2 (BT474)

T2 sequence (P09619 33-1106): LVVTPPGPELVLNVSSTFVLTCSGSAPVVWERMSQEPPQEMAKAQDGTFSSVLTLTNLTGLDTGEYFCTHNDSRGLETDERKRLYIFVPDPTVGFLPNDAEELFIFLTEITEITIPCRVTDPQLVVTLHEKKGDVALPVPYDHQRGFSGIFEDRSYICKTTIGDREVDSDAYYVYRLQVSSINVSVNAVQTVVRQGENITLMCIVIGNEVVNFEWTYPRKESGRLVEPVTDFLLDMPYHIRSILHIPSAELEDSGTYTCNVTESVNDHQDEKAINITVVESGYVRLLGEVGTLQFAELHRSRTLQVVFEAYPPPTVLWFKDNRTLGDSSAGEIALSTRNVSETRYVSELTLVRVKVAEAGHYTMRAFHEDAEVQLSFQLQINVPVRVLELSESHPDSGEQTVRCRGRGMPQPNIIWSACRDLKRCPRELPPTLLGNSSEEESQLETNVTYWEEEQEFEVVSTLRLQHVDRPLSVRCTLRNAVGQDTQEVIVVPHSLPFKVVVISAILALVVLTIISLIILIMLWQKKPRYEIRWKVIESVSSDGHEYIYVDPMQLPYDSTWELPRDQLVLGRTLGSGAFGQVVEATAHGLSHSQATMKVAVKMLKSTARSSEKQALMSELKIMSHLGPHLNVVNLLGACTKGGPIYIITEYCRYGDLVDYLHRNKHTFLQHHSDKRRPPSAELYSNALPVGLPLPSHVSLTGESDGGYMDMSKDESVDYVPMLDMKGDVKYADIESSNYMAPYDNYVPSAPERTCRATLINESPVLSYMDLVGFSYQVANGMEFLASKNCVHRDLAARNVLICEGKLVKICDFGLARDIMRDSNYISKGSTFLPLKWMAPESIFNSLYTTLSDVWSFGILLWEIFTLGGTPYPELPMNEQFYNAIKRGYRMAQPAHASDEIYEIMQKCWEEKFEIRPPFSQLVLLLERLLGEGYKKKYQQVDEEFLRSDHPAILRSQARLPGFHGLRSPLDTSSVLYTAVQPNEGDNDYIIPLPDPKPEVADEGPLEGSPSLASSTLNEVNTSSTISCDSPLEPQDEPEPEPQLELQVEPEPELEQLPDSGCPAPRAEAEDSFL

Compound: CC(C)c1cc(C=C(C#N)C(N)=C(C#N)C#N)cc(C(C)C)c1O [Compound M22, (E)-2-(1-Amino-2,2-dicyanoethenyl-3-(3,5-diisopropyl-4-hydroxyphenyl)acrylonitrile)]
IC50 (HER2; [1]): 4.2 µM

Compound: CC(C)c1cc(/C=C(\C#N)C(=S)NCCCc2ccccc2)cc(C(C)C)c1O [Compound M24, (E)-3-(3,5-Diisopropyl-4-hyrdroxyphenyl)-2-[(3-phenyl-n-propyl)aminothiocarbonyl]acrylonitrile]
IC50 (HER2; [1]): 3.1 µM

Compound: N#C/C(=C\c1ccc(O)c(O)c1)C(=S)NCc1ccccc1 [Compound M13]
IC50 (HER2; [2]): 14 µM
IC50 (HER2; [1]): 14 µM
fold greater inhibition of HER2 compared to EGF-R (HER2; as described in Example 1): ≥ 7 fold
IC50 (PDGFR-β): 60 µM
IC50 (SKBR3 cells): 25 µM
IC50 (SKOV3 cells): 20 µM

Compound: N#C/C(=C\c1ccc(O)c(O)c1)C(=O)Nc1cccc(C(F)(F)F)c1 [Compound M15]
IC50 (HER2; [2]): 16 µM
IC50 (HER2; [1]): 16 µM
IC50 (SKBR3 cells): 20 µM
IC50 (SKOV3 cells): 17 µM

Compound: (E,E)-2-[[-Cyano-2-(3,5-diisopropyl-4-hydroxyphenyl)ethenyl]sulfonyl]-3-(3,5-di-t-butyl-4-hydroxyphenyl)acrylonitrile [Compound M37]
IC50 (HER2; [1]): 0.85 µM

Compound: N#C/C(=C\c1cc(O)c(O)c(I)c1)C(=O)NCCCc1ccccc1 [Compound M16]
IC50 (HER2; [2]): 18 µM and 18.2 µM
IC50 (HER2; [1]): 26 µM
IC50 (PDGFR-β): 35 µM
IC50 (SKBR3 cells): 9 µM
IC50 (SKOV3 cells): 4.5 µM

Compound: CC(C)c1cc(/C=C(\C#N)C(=O)NCCCc2ccccc2)cc(C(C)C)c1O [Compound M21, (E)-3-(3,5-Diisopropyl-4-hydroxyphenyl)-2-[(3-phenyl-n-propyl)aminocarbonyl]acrylonitrile]
IC50 (HER2; [1]): 7.4 µM

Compound: CC(C)(C)c1cc(/C=C(\C#N)C(N)=S)cc(C(C)(C)C)c1O [Compound M11]
IC50 (HER2; [2]): < 3 µM
IC50 (HER2; [1]): 3.1 µM
IC50 (PDGFR-β): > 100 µM
IC50 (SKBR3 cells): 4 µM
IC50 (SKOV3 cells): 0.5 µM

Compound: CC(C)(C)c1cc(/C=C(\C#N)C(=O)NCCCc2ccccc2)cc(C(C)(C)C)c1O [Compound M20, (E)-3-(3,5-di-t-Butyl-4-hydroxyphenyl)-2-[(3-phenyl-n-propyl)aminocarbonyl]acrylonitrile]
IC50 (HER2; [1]): 3 µM

Compound: CC(C)c1cc(/C=C(\C#N)S(=O)(=O)c2ccccn2)cc(C(C)C)c1O [Compound M26]
IC50 (HER2; [1]): 9.6 µM

Continued, values first:

IC50 (HER2; [1]): 0.11 µM
Compound: CC(C)(C)c1cc(/C=C(\C#N)S(=O)(=O)c2ccccn2)cc(C(C)(C)C)c1O [Compound M34, (E)-3-(3,5-di-t-Butyl-4-hydroxyphenyl)-2-[(pyrid-2-yl)sulfonyl]acrylonitrile]

IC50 (HER2; [1]): 0.29 µM
Compound: CC(C)(C)c1cc(/C=C(\C#N)C(=O)Nc2ccc(C(F)(F)F)cc2)cc(C(C)(C)C)c1O [Compound M35, (E)-3-(3,5-di-t-Butyl-4-hydroxyphenyl)-2-[(4-trifluoromethyl)phenylaminocarbonyl]acrylonitrile]

IC50 (HER2; [1]): 4.6 µM
Compound: CC(C)c1cc(/C=C(\C#N)S(=O)(=O)CC#N)cc(C(C)C)c1O [Compound M27]

IC50 (HER2; [1]): 7.3 µM
Compound: Cc1cc(/C=C(\C#N)S(=O)(=O)c2ccccn2)cc(C)c1O [Compound M32]

IC50 (HER2; [1]): 5.4 µM
activity in cellular assays (HER2; cellular assays of the Examples, versus analogous compounds having bulkier R1 and R3 groups): less activity
Compound: Cc1cc(/C=C(\C#N)S(=O)(=O)c2ccccc2)cc(C)c1O [Compound M31]

IC50 (HER2; [1]): 0.17 µM
Compound: CC(C)(C)c1cc(/C=C(\C#N)S(=O)(=O)c2ccccc2)cc(C(C)(C)C)c1O [Compound M33, (E)-3-(3,5-di-t-Butyl-4-hydroxyphenyl)-2-(phenylsulfonyl)acrylonitrile]

IC50 (HER2; [1]): 0.4 µM
Compound: CC(C)(C)c1cc(/C=C(\C#N)S(=O)(=O)CC#N)cc(C(C)(C)C)c1O [Compound M36, (E)-3-(3,5-di-t-Butyl-4-hydroxyphenyl)-2-(cyanomethylsulfonyl)acrylonitrile]

IC50 (HER2; [1]): 0.65 µM
Compound: CC(C)c1cc(/C=C(\C#N)S(=O)(=O)c2ccccc2)cc(C(C)C)c1O [Compound M30]

IC50 (HER2; [1]): 1.4 µM
Compound: CC(C)c1cc(/C=C(\C#N)S(=O)(=O)/C(C#N)=C/c2cc(C(C)C)c(O)c(C(C)C)c2)cc(C(C)C)c1O [Compound M29]
